Laboratory results published in the supplement of paper PMC10307832.

Assays:
Assay in all cases: relative viability (nuclei count vs DMSO), 5 days (fraction); higher = more cells survive
Idelalisib + Lapatinib = compound: CC[C@H](Nc1ncnc2[nH]cnc12)c1nc2cccc(F)c2c(=O)n1-c1ccccc1 [Idelalisib] + CS(=O)(=O)CCNCc1ccc(-c2ccc3ncnc(Nc4ccc(OCc5cccc(F)c5)c(Cl)c4)c3c2)o1 [Lapatinib] (partner 2 µM)
How it was run: (§1)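 Dosing by pin tool came one day after lung cancer cell lines were seeded in 1536-well plates, using either one drug or a fixed anchor-drug dose plus five library-drug doses (not always all listed) in √10 steps. After 5 days, nuclei were counted on 4× images. Relative viability is treated-well nuclei count divided by vehicle-well nuclei count, and values are medians of duplicate plates.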

Idelalisib + Alpelisib = compound: CC[C@H](Nc1ncnc2[nH]cnc12)c1nc2cccc(F)c2c(=O)n1-c1ccccc1 [Idelalisib] + Cc1nc(NC(=O)N2CCC[C@H]2C(N)=O)sc1-c1ccnc(C(C)(C)C(F)(F)F)c1 [Alpelisib] (partner 2 µM)
How it was run: as §1

Pemetrexed + Foretinib = compound: Nc1nc2[nH]cc(CCc3ccc(C(=O)N[C@@H](CCC(=O)O)C(=O)O)cc3)c2c(=O)[nH]1 [Pemetrexed] + COc1cc2c(Oc3ccc(NC(=O)C4(C(=O)Nc5ccc(F)cc5)CC4)cc3F)ccnc2cc1OCCCN1CCOCC1 [Foretinib] (partner 0.25 µM)
How it was run: as §1

Pemetrexed + Dasatinib = compound: Nc1nc2[nH]cc(CCc3ccc(C(=O)N[C@@H](CCC(=O)O)C(=O)O)cc3)c2c(=O)[nH]1 [Pemetrexed] + Cc1nc(Nc2ncc(C(=O)Nc3c(C)cccc3Cl)s2)cc(N2CCN(CCO)CC2)n1 [Dasatinib] (partner 0.075 µM)
How it was run: as §1

Row | Cell Line | relative viability (Idelalisib + Lapatinib; first compound 0.04 µM) | relative viability (Idelalisib + Lapatinib; first compound 0.1265 µM) | relative viability (Idelalisib + Lapatinib; first compound 0.4 µM) | relative viability (Idelalisib + Lapatinib; first compound 1.265 µM) | relative viability (Idelalisib + Lapatinib; first compound 4 µM) | relative viability (Idelalisib + Alpelisib; first compound 0.04 µM) | relative viability (Idelalisib + Alpelisib; first compound 0.1265 µM) | relative viability (Idelalisib + Alpelisib; first compound 0.4 µM) | relative viability (Idelalisib + Alpelisib; first compound 1.265 µM) | relative viability (Idelalisib + Alpelisib; first compound 4 µM) | relative viability (Pemetrexed + Foretinib; first compound 0.006325 µM) | relative viability (Pemetrexed + Foretinib; first compound 0.02 µM) | relative viability (Pemetrexed + Foretinib; first compound 0.06325 µM) | relative viability (Pemetrexed + Foretinib; first compound 0.2 µM) | relative viability (Pemetrexed + Dasatinib; first compound 0.002 µM) | relative viability (Pemetrexed + Dasatinib; first compound 0.006325 µM) | relative viability (Pemetrexed + Dasatinib; first compound 0.02 µM) | relative viability (Pemetrexed + Dasatinib; first compound 0.06325 µM) | relative viability (Pemetrexed + Dasatinib; first compound 0.2 µM) | relative viability (Pemetrexed + Foretinib; first compound 0.002 µM)
1 | NCI-H2023 | 0.837 | 1.01 | 0.525 | 0.775 | 0.724 | 0.693 | 0.564 | 0.524 | 0.494 | 0.313 | 0.739 | 0.885 | 0.888 | 0.319 | 0.506 | 0.505 | 0.6 | 0.433 | 0.195 | 
2 | NCI-H2085 | 0.744 | 0.757 | 0.687 | 0.723 | 0.503 | 1.01 | 0.955 | 0.811 | 0.874 | 0.514 | 0.737 | 1.11 | 0.966 | 1.17 | 0.23 | 0.228 | 0.291 | 0.23 | 0.242 | 1.03
3 | NCI-H2087 | 1.15 | 1.06 | 1.13 | 1.11 | 1.18 | 1.03 | 1.19 | 1.11 | 1.09 | 0.651 | 1.01 | 1.17 | 0.986 | 0.783 | 0.819 | 0.808 | 0.974 | 0.751 | 0.59 | 1.09
4 | NCI-H2126 | 0.808 | 0.785 | 0.634 | 0.764 | 0.728 | 0.739 | 0.739 | 0.611 | 0.675 | 0.6 | 1.19 | 1.29 | 0.565 | 1.03 | 0.571 | 0.607 | 0.625 | 0.548 | 0.517 | 1.02
5 | NCI-H2170 | 0.285 | 0.267 | 0.242 | 0.29 | 0.29 | 0.795 | 0.854 | 0.708 | 0.688 | 0.547 | 1.02 | 0.999 | 1 | 1.02 | 0.581 | 0.631 | 0.612 | 0.505 | 0.575 | 0.918
6 | NCI-H2228 | 1.21 | 1.14 | 0.875 | 1.23 | 1.03 | 1.07 | 0.739 | 0.774 | 0.672 | 0.631 |  | 0.993 | 0.633 | 0.302 | 0.444 |  | 0.472 | 0.337 | 0.2 | 0.71
7 | NCI-H2347 | 0.942 | 0.917 | 0.84 | 1.01 | 0.969 | 0.964 | 1 | 0.989 | 1.07 | 0.881 | 1.06 | 1.19 | 0.739 | 0.558 | 0.269 | 0.169 | 0.351 | 0.319 | 0.272 | 0.841
8 | NCI-H2405 | 1.16 | 1.07 | 0.897 | 1.14 | 1.04 | 0.811 | 0.642 | 0.537 | 0.683 | 0.544 | 1.03 | 1.09 | 1.03 | 1.08 | 0.182 | 0.228 | 0.228 | 0.205 | 0.209 | 1.06
9 | NCI-H3122 | 1.06 | 0.981 | 1.05 | 1.03 | 1.05 | 0.709 | 0.782 | 0.685 | 0.777 | 0.631 | 0.972 | 0.973 | 0.973 | 0.72 | 0.707 | 0.815 | 0.659 | 0.674 | 0.463 | 0.931
10 | PC-3 [JPC-3] | 0.455 | 0.49 | 0.439 | 0.44 | 0.36 | 1.11 | 1.02 | 0.981 | 0.963 | 0.855 | 1.05 | 1.02 | 1.05 | 1.01 | 0.845 | 0.988 | 1.03 | 0.983 | 0.941 | 0.93
11 | PC-14 | 0.329 | 0.299 | 0.309 | 0.306 | 0.252 | 0.992 | 0.882 | 0.874 | 0.983 | 0.9 | 0.927 | 1 | 0.611 | 0.258 | 0.249 | 0.242 | 0.316 | 0.0953 | 0.0482 | 0.894
12 | RERF-LC-KJ | 0.763 | 0.872 | 0.814 | 0.83 | 0.789 | 0.735 | 0.71 | 0.785 | 0.77 | 0.645 | 0.84 | 0.866 | 0.857 | 0.749 | 0.767 | 0.881 | 0.856 | 0.849 | 0.382 | 0.84
13 | SK-LU-1 | 0.851 | 0.866 | 0.617 | 0.998 | 0.661 | 1.43 | 1.12 | 0.886 | 0.876 | 0.968 | 0.888 | 0.923 | 0.783 | 0.801 | 0.184 | 0.205 | 0.185 | 0.198 | 0.162 | 0.71
14 | SK-MES-1 | 0.467 | 0.445 | 0.432 | 0.443 | 0.396 | 0.837 | 0.913 | 0.753 | 0.715 | 0.574 | 0.83 | 1.04 | 0.907 | 0.868 | 0.411 | 0.367 | 0.516 | 0.328 | 0.339 | 0.883
15 | SW 1573 | 1.17 | 1.06 | 0.913 | 1.12 | 1.27 | 0.822 | 0.612 | 0.711 | 0.729 | 0.633 | 0.808 | 0.951 | 0.979 | 0.855 | 0.524 | 0.448 | 0.735 | 0.593 | 0.42 | 0.909
